The results in this text go back to PubChem BioAssay (NCI).

Several values for one entry are separate records, joined by “and”; a condition that tells them apart may be missing. Equal values may be shown once.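 The compound was tested at five concentrations on cells cultured in 96-well plates, with a 48-hour exposure period. Abbreviation: GI50, concentration required for 50% inhibition of growth. TGI marks complete inhibition of growth.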

Some test systems named below: A549 NSCLC; HL-60(TB) leukemia; KM12 colon; MOLT-4 leukemia; OVCAR-8 ovarian; SR leukemia; TK-10 renal; U251 CNS; UACC-257 melanoma; UACC-62 melanoma.
Common to all, as to experiment: NCI anticancer screen, dose series, 48 h

Take `COc1ccc(-c2noc(C(=O)O)c2-c2cc(OC)c(OC)c(OC)c2)cc1`: the GI50 in the experiment on A549 NSCLC was 4750 nM; in the experiment on HL-60(TB) leukemia, 2190 nM; in the experiment on KM12 colon, 595 nM; in the experiment on MOLT-4 leukemia it was 4910 nM; in the experiment on OVCAR-8 ovarian it was 5610 nM; in the experiment on SR leukemia it was 402 nM. Moreover, the GI50 with TK-10 renal is more than 100000 nM; in the experiment on U251 CNS it was 4650 nM; with UACC-257 melanoma, more than 100000 nM; in the experiment on UACC-62 melanoma, 11100 nM. In addition, the TGI with A549 NSCLC is more than 100000 nM; in the experiment with HL-60(TB) leukemia, 6410 nM; with KM12 colon, more than 100000 nM; in the experiment with MOLT-4 leukemia, more than 100000 nM; with OVCAR-8 ovarian, more than 100000 nM; in the experiment with SR leukemia, more than 100000 nM. Moreover, the TGI in the experiment on TK-10 renal, with U251 CNS, in the experiment with UACC-257 melanoma and in the experiment with UACC-62 melanoma was more than 100000 nM in each case.
As for `C=CCc1c(Cl)nc(Cl)nc1Cl`, the TGI is 5910 nM with A549 NSCLC; more than 100000 nM in the experiment with HL-60(TB) leukemia; 888 nM in the experiment on KM12 colon; 62.5 nM in the experiment with MOLT-4 leukemia; 1320 nM with OVCAR-8 ovarian; more than 100000 nM in the experiment with SR leukemia. For the same molecule, the TGI amounted to 3350 nM with TK-10 renal, 1740 nM with U251 CNS, 1900 nM in the experiment with UACC-257 melanoma and 2070 nM in the experiment with UACC-62 melanoma.
With `CC1CC(C)CC(C)C(O)/C(C#N)=C/C=C/CC(C2CCCC2C(=O)O)OC(=O)CC(O)C(C)C1` (stereo not drawn), the GI50 was 68.1 nM in the experiment on A549 NSCLC; 16.6 nM with HL-60(TB) leukemia; 47.3 nM and < 15.8 nM with KM12 colon; 26.9 nM in the experiment on MOLT-4 leukemia; 49.5 nM in the experiment on OVCAR-8 ovarian; 17.6 nM in the experiment on SR leukemia. In addition, the figures for the GI50 in the experiment on UACC-257 melanoma and in the experiment with UACC-62 melanoma were 35.9 nM and 11.2 nM, respectively. For the same molecule, the TGI with A549 NSCLC is 496 nM and 919 nM; in the experiment with HL-60(TB) leukemia, 49.9 nM and 161 nM; with KM12 colon, 216 nM and 227 nM; with MOLT-4 leukemia, 64.1 nM and 209 nM; in the experiment on OVCAR-8 ovarian, 472 nM and 344 nM; with SR leukemia it was 73.6 nM and 81.3 nM. In addition, the TGI with TK-10 renal is 89 nM and 432 nM; in the experiment with U251 CNS it was 54.7 nM and 44.9 nM; in the experiment on UACC-257 melanoma, 170 nM and 49.1 nM; in the experiment on UACC-62 melanoma it was 29.6 nM and 15 nM.
Regarding `C=C1CCC2C3(C)COC(C)(C)OC3CCC2(C)C1C/C=C1/C(=O)OCC1OC(C)=O` (stereo not drawn), the GI50 in the experiment on A549 NSCLC is 3500 nM; in the experiment on HL-60(TB) leukemia it was 2550 nM; in the experiment with KM12 colon, 3880 nM; in the experiment on MOLT-4 leukemia it was 3530 nM; in the experiment with OVCAR-8 ovarian, 2180 nM; in the experiment on SR leukemia it was 2370 nM. Besides, the GI50 in the experiment with TK-10 renal is 5240 nM; in the experiment on U251 CNS, 2690 nM; with UACC-257 melanoma, 2020 nM; in the experiment on UACC-62 melanoma it was 4040 nM. The TGI in the experiment on A549 NSCLC was 12800 nM; in the experiment with HL-60(TB) leukemia it was 7140 nM; with KM12 colon it was 13400 nM; in the experiment with MOLT-4 leukemia, 14300 nM; in the experiment with OVCAR-8 ovarian, 6800 nM; in the experiment on SR leukemia, 9030 nM. Besides, the TGI in the experiment with TK-10 renal came out at 16300 nM; with U251 CNS it was 9310 nM; in the experiment with UACC-257 melanoma, 5620 nM; in the experiment on UACC-62 melanoma, 17000 nM.
Consider `CCN1C(=O)N(CC)C2C1NN=c1s/c(=C\c3ccc(Cl)cc3Cl)c(=O)n12` (stereo not drawn), for which the GI50 with A549 NSCLC was 36.9 nM; in the experiment on HL-60(TB) leukemia it was 22.7 nM; in the experiment on KM12 colon, 27.4 nM; in the experiment with MOLT-4 leukemia, 42.1 nM; in the experiment on OVCAR-8 ovarian, 36.8 nM; in the experiment with SR leukemia it was 31.9 nM. Besides, the GI50 in the experiment on TK-10 renal was 13400 nM; with U251 CNS, 36.5 nM; with UACC-257 melanoma, 1050 nM; in the experiment on UACC-62 melanoma, 64 nM. Further, the TGI is more than 55500 nM with A549 NSCLC; 53.4 nM in the experiment with HL-60(TB) leukemia; more than 32600 nM in the experiment on KM12 colon; more than 64500 nM in the experiment on MOLT-4 leukemia; 36600 nM in the experiment on OVCAR-8 ovarian; more than 24800 nM in the experiment on SR leukemia. The TGI with TK-10 renal was 59300 nM; in the experiment on U251 CNS, more than 41300 nM; in the experiment with UACC-257 melanoma, more than 88400 nM; with UACC-62 melanoma, more than 51500 nM.
For `Cc1c2cnccc2c(C)c2c1c1cc(C#N)ccc1n2C`, the GI50 in the experiment on A549 NSCLC was 100 nM; with HL-60(TB) leukemia, 401 nM; in the experiment with KM12 colon, 243 nM; in the experiment on MOLT-4 leukemia, 95.9 nM; in the experiment with OVCAR-8 ovarian, 103 nM; in the experiment with SR leukemia, 58.8 nM. Moreover, the GI50 is 266 nM in the experiment on TK-10 renal, 204 nM in the experiment with U251 CNS, 207 nM in the experiment with UACC-257 melanoma and 148 nM in the experiment with UACC-62 melanoma. Besides, the TGI stood at 895 nM in the experiment with A549 NSCLC; 1770 nM in the experiment on HL-60(TB) leukemia; 1980 nM with KM12 colon; 1680 nM in the experiment on MOLT-4 leukemia; 1960 nM in the experiment on OVCAR-8 ovarian; 3060 nM with SR leukemia. Besides, the TGI in the experiment on TK-10 renal came to 1620 nM; with U251 CNS, 1120 nM; in the experiment with UACC-257 melanoma, 788 nM; in the experiment with UACC-62 melanoma, 343 nM.
For the molecule `CNC(=S)Nc1ccc(OC)c2ccccc12`, the TGI in the experiment on A549 NSCLC, with HL-60(TB) leukemia, with KM12 colon, in the experiment on MOLT-4 leukemia, in the experiment on OVCAR-8 ovarian and with SR leukemia was more than 10000 nM each time. Also, the TGI with TK-10 renal, in the experiment with U251 CNS, with UACC-257 melanoma and in the experiment with UACC-62 melanoma was more than 10000 nM throughout.
As for `N=C1C(O)C2(I)c3ccccc3N3C(=N)C(O)C4c5ccccc5N1C4C32` (stereo not drawn), the TGI in the experiment on A549 NSCLC is more than 100000 nM; in the experiment on HL-60(TB) leukemia, 79400 nM; in the experiment on KM12 colon, 34800 nM; in the experiment with MOLT-4 leukemia, more than 100000 nM; in the experiment with OVCAR-8 ovarian, more than 100000 nM; in the experiment on SR leukemia, more than 100000 nM. Further, the TGI is more than 100000 nM in the experiment with TK-10 renal, 43900 nM in the experiment on U251 CNS, more than 100000 nM with UACC-257 melanoma and more than 100000 nM in the experiment with UACC-62 melanoma.
Turning to `c1ccc(-c2nc(-c3ccccn3)nc(-c3ccccn3)n2)nc1`, the GI50 was 47900 nM in the experiment with A549 NSCLC; 38200 nM in the experiment with HL-60(TB) leukemia; 32400 nM in the experiment with KM12 colon; 21200 nM in the experiment with MOLT-4 leukemia; 21300 nM in the experiment on OVCAR-8 ovarian; 37900 nM in the experiment on SR leukemia. Besides, the GI50 in the experiment on TK-10 renal was 45500 nM; with U251 CNS it was 48600 nM; in the experiment on UACC-257 melanoma, 39900 nM; in the experiment on UACC-62 melanoma, 28000 nM. Besides, the TGI in the experiment with A549 NSCLC, in the experiment on HL-60(TB) leukemia, in the experiment on KM12 colon, in the experiment with MOLT-4 leukemia, in the experiment with OVCAR-8 ovarian and in the experiment with SR leukemia was more than 100000 nM in each case. Moreover, the TGI with TK-10 renal, in the experiment on U251 CNS, with UACC-257 melanoma and with UACC-62 melanoma was more than 100000 nM each time.
